Assays:
[1] = Compound was tested for inhibition of chymotrypsinogen
[2] = target: T1, Capsid scaffolding protein (Human cytomegalovirus (strain AD169) (HHV-5) (Human herpesvirus 5), UniProt P16753); experiment: Inhibitory concentration against HCMV protease.; assay type: functional, Human herpesvirus 5 strain AD169
T1 sequence (P16753 whole entry): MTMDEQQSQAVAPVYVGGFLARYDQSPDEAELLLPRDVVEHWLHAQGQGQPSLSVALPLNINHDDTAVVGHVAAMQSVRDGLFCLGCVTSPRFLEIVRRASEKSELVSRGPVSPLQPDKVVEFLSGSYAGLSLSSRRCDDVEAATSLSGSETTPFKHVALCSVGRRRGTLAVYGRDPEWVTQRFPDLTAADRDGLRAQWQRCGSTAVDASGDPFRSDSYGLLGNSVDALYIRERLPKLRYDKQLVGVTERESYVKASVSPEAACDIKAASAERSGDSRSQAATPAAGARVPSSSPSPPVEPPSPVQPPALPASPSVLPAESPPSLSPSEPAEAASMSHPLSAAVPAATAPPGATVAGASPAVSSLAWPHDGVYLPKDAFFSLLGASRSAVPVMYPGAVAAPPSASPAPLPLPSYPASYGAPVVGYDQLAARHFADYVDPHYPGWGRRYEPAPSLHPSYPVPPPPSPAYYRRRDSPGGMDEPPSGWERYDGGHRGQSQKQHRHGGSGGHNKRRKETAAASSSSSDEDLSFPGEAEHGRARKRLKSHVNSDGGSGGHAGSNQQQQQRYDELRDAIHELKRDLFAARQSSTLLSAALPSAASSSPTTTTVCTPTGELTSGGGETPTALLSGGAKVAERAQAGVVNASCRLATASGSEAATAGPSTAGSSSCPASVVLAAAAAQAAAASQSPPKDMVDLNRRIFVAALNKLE

[3] = target: Serine protease 1 (Homo sapiens) (UniProt P07477); experiment: Compound was tested for inhibition of trypsin
Serine protease 1 (Homo sapiens), sequence (P07477 whole entry): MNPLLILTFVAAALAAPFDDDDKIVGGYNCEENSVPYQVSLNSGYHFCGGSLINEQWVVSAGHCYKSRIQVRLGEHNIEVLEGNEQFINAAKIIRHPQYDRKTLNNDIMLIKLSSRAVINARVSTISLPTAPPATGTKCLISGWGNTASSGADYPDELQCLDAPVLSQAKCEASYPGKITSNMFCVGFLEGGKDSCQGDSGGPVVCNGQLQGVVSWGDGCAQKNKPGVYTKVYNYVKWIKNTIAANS

[4] = Inhibitory concentration against elastase; assay type: functional

| Compound | Activity [1] | IC50 [2] | Activity [3] | IC50 [4] |
| --- | --- | --- | --- | --- |
| O=C(O)c1ccc(C(=O)Nc2ccc3c(OCc4cccc(Cl)c4)cccc3c2)cc1 | > 50 µM | 5.1 µM | > 80 µM |  |
| O=C(Nc1ccc2c(/C=C/c3ccc4cc(Cl)ccc4n3)cccc2c1)Oc1ccccc1 |  | > 50 µM |  |  |
| O=C(O)c1ccc(CNc2ccc3c(COc4cccc(Cl)c4)cccc3c2)cc1 | > 50 µM | 3.1 µM | > 80 µM |  |
| O=C(O)c1ccc(C(=O)Nc2ccc3c(COc4cccc(C(F)(F)F)c4)cccc3c2)cc1 |  | 15.2 µM |  |  |
| O=S(=O)(Nc1ccc2c(/C=C/c3ccc4ccc(Cl)cc4n3)cccc2c1)C(F)(F)F |  | 15.1 µM |  | > 50 µM |
| O=C(Nc1ccc2c(/C=C/c3ccc4ccc(Cl)cc4n3)cccc2c1)NS(=O)(=O)c1ccc(Cl)cc1 |  | 4.7 µM |  |  |
| Cc1ccc(S(=O)(=O)NC(=O)Nc2ccc3c(/C=C/c4ccc5ccc(Cl)cc5n4)cccc3c2)cc1 |  | 8.3 µM |  |  |
| CN(c1ccc2c(/C=C/c3ccc4cc(Cl)ccc4n3)cccc2c1)S(=O)(=O)C(F)(F)F |  | > 50 µM |  |  |
| O=S(=O)(Nc1ccc2c(/C=C/c3ccccc3)cccc2c1)C(F)(F)F |  | 7.5 µM |  | > 50 µM |
| O=C(O)c1ccc(C(=O)Nc2ccc3c(/C=C/c4cccc(C(F)(F)F)c4)cccc3c2)cc1 |  | 6.9 µM |  |  |
| COc1ccc2nc(/C=C/c3cccc4cc(NS(=O)(=O)C(F)(F)F)ccc34)ccc2c1 |  | 3.4 µM |  | > 50 µM |
| O=S(=O)(Nc1ccc2c(/C=C/c3ccc4cccc(Cl)c4n3)cccc2c1)C(F)(F)F |  | 3.2 µM |  | > 50 µM |
| O=S(=O)(Nc1ccc2c(/C=C/c3cccc(C(F)(F)F)c3)cccc2c1)C(F)(F)F |  | 6.5 µM |  | > 50 µM |
| O=S(=O)(Nc1ccc2c(/C=C/c3cc(Cl)c4ccccc4n3)cccc2c1)C(F)(F)F |  | 10.5 µM |  | > 50 µM |
| O=C(Nc1ccc2c(/C=C/c3ccc4ccc(Cl)cc4n3)cccc2c1)c1ccccc1 |  | > 50 µM |  |  |
| O=C(O)c1ccc(C(=O)Nc2ccc3c(/C=C/c4ccc5ccc(Cl)cc5n4)cccc3c2)cc1 |  | 17.4 µM |  |  |
| CS(=O)(=O)Nc1ccc2c(/C=C/c3ccc4cc(Cl)ccc4n3)cccc2c1 |  | > 50 µM |  |  |
| O=C(O)c1ccc(CNc2ccc3c(/C=C/c4cccc(C(F)(F)F)c4)cccc3c2)cc1 |  | 6.9 µM |  |  |
| O=S(=O)(Nc1ccc2c(/C=C/c3ccc4cc(Cl)ccc4n3)cccc2c1)C(F)(F)F |  | 3.2 µM |  | > 50 µM |

| Compound | Activity [1] | IC50 [2] | Activity [3] | IC50 [4] |
| --- | --- | --- | --- | --- |
| COc1cccc(/C=C/c2cccc3cc(NS(=O)(=O)C(F)(F)F)ccc23)c1 |  | 6.6 µM |  | > 50 µM |
| Cc1ccc2nc(/C=C/c3cccc4cc(NS(=O)(=O)C(F)(F)F)ccc34)ccc2c1 |  | 6.3 µM |  | > 50 µM |
| O=C(O)c1ccc(C(=O)Nc2ccc3c(COc4cccc(Cl)c4)cccc3c2)cc1 |  | 15.3 µM |  |  |
| O=C(O)c1ccc2c(/C=C/c3ccc4ccccc4n3)cccc2c1 |  | > 50 µM |  |  |
| O=S(=O)(Nc1ccc2c(/C=C/c3ccc4ccccc4n3)cccc2c1)C(F)(F)F |  | 9.5 µM |  | > 50 µM |
| O=C(O)c1ccc(CNc2ccc3c(COc4ccc(Br)cc4)cccc3c2)cc1 | > 50 µM | 2.8 µM | > 80 µM |  |
| O=C(O)c1ccc(CNc2ccc3c(COc4ccccc4)cccc3c2)cc1 | > 50 µM | 4.8 µM | > 80 µM |  |
| O=C(O)c1ccc(C(=O)Nc2ccc3c(OCc4cccc(Br)c4)cccc3c2)cc1 | > 50 µM | 6.1 µM | > 80 µM |  |
| Nc1ccc2c(/C=C/c3ccc4ccc(Cl)cc4n3)cccc2c1 |  | > 50 µM |  |  |
| CN(C)c1ccc2nc(/C=C/c3cccc4cc(NS(=O)(=O)C(F)(F)F)ccc34)ccc2c1 |  | 3.7 µM |  | > 50 µM |
| O=C(O)c1ccc(CNc2ccc3c(/C=C/c4ccc5ccc(Cl)cc5n4)cccc3c2)cc1 |  | 2.7 µM |  |  |
| O=C(O)c1ccc(C(=O)Nc2ccc3c(OCc4cccc(C(F)(F)F)c4)cccc3c2)cc1 | > 50 µM | 7.4 µM | > 80 µM |  |
| O=C(O)c1ccc(C(=O)Nc2ccc3c(COc4ccc(Br)cc4)cccc3c2)cc1 |  | 21.3 µM |  |  |
| O=C(Nc1ccc2c(/C=C/c3ccc4ccc(Cl)cc4n3)cccc2c1)NS(=O)(=O)c1ccccc1 |  | 6.7 µM |  |  |
| O=S(=O)(Nc1ccc2c(/C=C/c3ccc4ccccc4c3)cccc2c1)C(F)(F)F |  | 15 µM |  | > 50 µM |
| O=S(=O)(Nc1ccc2c(/C=C/c3ccc(Cl)cc3)cccc2c1)C(F)(F)F |  | 4.3 µM |  | > 50 µM |
| O=S(=O)(Nc1ccc2c(/C=C/c3ccccn3)cccc2c1)C(F)(F)F | > 160 µM | 66 µM |  | > 50 µM |
| CC(=O)Nc1ccc2c(/C=C/c3ccc4cc(Cl)ccc4n3)cccc2c1 |  | 43 µM |  |  |

From ChEMBL document CHEMBL1149136, “Design and syntheses of 1,6-naphthalene derivatives as selective HCMV protease inhibitors” (J Med Chem, 2004)
